Experimental data from US5670498A, “8-substituted styryl xanthine derivatives” (Kyowa Hakko Kogyo Co., Ltd., priority 1992, dated 1997).
pKi: −log10 of the molar value. Like-named read-outs stand apart in the source and are kept apart here.

Tests used:
[1] = Acute Toxicity Test (minimum lethal dose, po); format: in vivo; conditions: mice, 7 days after administration
Protocol: Test compounds were orally administered to groups of dd-strain male mice weighing 20±1 g, each group consisting of three mice (po; 300 mg/kg). Seven days after the administration, minimum lethal dose (MLD) of each compound was determined by observing the mortality.
Therefore, these compounds can be safely used in a wide range of doses.

adenosine A2 receptor [2] = target: T1, adenosine A2 receptor (Rattus norvegicus, UniProt P30543); test: Adenosine A2 Receptor Binding Test (3H-NECA + CPA, rat corpus striatum); conditions: for inhibition at 1 µM: 10^-6 M
T1 construct: from tissue; host or cells: rat corpus striatum (washed membrane suspension)
Protocol: Corpus striatum of a rat was suspended in ice-cooled 50 mM Tris hydroxymethyl aminomethane hydrochloride (Tris HCl) buffer (pH 7.7) by using Polytron homogenizer (manufactured by […] Co.). The suspension was centrifuged (50,000×g, 10 minutes), and the precipitate was suspended again in the same amount of 50 mM Tris HCl buffer. The suspension was centrifuged under the same conditions, and the final precipitate was suspended once again in 50 mM Tris HCl buffer containing 10 mM magnesium chloride and 0.02 unit/mg tissue of adenosine deaminase (manufactured by Sigma Co.) to give a tissue concentration of 5 mg (wet weight)/ml. […] The resulting mixture was allowed to stand at 25° C. for 120 minutes and then rapidly filtered by suction through a glass fiber filter (GF/C, manufactured by Whatman Co.). […] The radioactivity on the filter was determined with a liquid scintillation counter (manufactured by Packard instrument Co.). […] The Ki values shown in the table were calculated by the following equation: [formula]

[3] = system: Haloperidol-Induced Catalepsy; test: Effect on Haloperidol-Induced Catalepsy; format: in vivo, male ddY mice; conditions: 10 mg/kg po; for Total Score (catalepsy): sum of five mice, 25 points at the full, control 25; for inhibition in vivo at 10 mg/kg: Mus musculus, decrease in total score based on control group, read-out: Remission Rate
Protocol: Effect on Haloperidol-Induced Catalepsy Parkinson's disease is a clinical syndrome caused by degeneration of nigrostriatal dopaminergic neurons. […] The experiment was performed by using several groups of 5-weeks-old male ddY mice (weighing 22 to 24 g, Japan SLC), each group consisting of 5 mice. Haloperidol (Janssen Pharmaceutica) suspended in 0.3% CMC was intraperitoneally administered to each mouse at a dose of 1.0 mg/kg. Test compounds were suspended in injectable distilled water (Otsuka Pharmaceutical Co., Ltd.) containing Tween 80 [polyoxyethylene (20) sorbitan monooleate]. L-DOPA (Kyowa Hakko Kogyo Co., Ltd.) and benserazide hydrochloride (Kyowa Hakko Kogyo Co., Ltd.) were suspended in 0.3% CMC. One hour after the haloperidol administration, the test compound suspensions and the control suspension [injectable distilled water (Otsuka Pharmaceutical Co., Ltd.) containing Tween 80] containing no test compound were orally administered to separate groups of the mice (0.1 ml per 10 g of body weight). One hour after the administration of the test compound, the forelimbs of each mouse and subsequently the hindlimbs of the same mouse were placed on a 4.5 cm-high, 1.0 cm-wide bar and catalepsy was estimated. […] The catalepsy score and the standard of judgment are shown below. […] The effect of the compounds was evaluated by the total of the catalepsy scores of five mice in each group (25 points at the full).

adenosine A2 receptor [4] = target: T1, adenosine A2 receptor; test: Adenosine A2 Receptor Binding Test (3H-CGS 21680, rat corpus striatum); conditions: [3H]CGS 21680, read-out: A2 Receptor Inhibition Rate; for inhibition at 1 µM: 10^-6 M; for inhibition at 0.1 µM: 10^-7 M
Protocol: Adenosine Receptor Antagonistic Activity (Adenosine A2 Receptor Binding Test)
Corpus striatum of a rat was suspended in ice-cooled 50 mM Tris hydroxymethyl aminomethane hydrochloride (Tris HCl) buffer (pH 7.7) by using Polytron homogenizer (manufactured by Kinematicas Co.). The suspension was centrifuged (50,000×g, 10 minutes), and the precipitate was suspended again in the same amount of 50 mM Tris HCl buffer. The suspension was centrifuged under the same conditions, and the final precipitate was suspended once again in 50 mM Tris HCl buffer containing 10 mM magnesium chloride and 0.02 unit/mg tissue of adenosine deaminase (manufactured by Sigma Co.) to give a tissue concentration of 5 mg (wet weight)/ml.
To 1 ml of the tissue suspension thus prepared were added 50 μl of a mixture of N-ethylcarboxamidoadenosine labeled with tritium (^3 H-NECA: 26 Ci/mmol, manufactured by Amersham Co.) (final concentration: 3.8 nM) and cyclopentyladenosine (CPA, manufactured by Sigma Co.) (final concentration: 50 nM), and 50 μl of a test compound. The resulting mixture was allowed to stand at 25° C. for 120 minutes and then rapidly filtered by suction through a glass fiber filter (GF/C, manufactured by Whatman Co.). The filter was immediately washed three times with 5 ml each of ice-cooled 50 mM Tris HCl buffer, and transferred to a vial, and a scintillator (EX-H by Wako Pure Chemical Industries, Ltd.) was added thereto. The radioactivity on the filter was determined with a liquid scintillation counter (manufactured by Packard instrument Co.).
The similar procedure as above was repeated to determine the radioactivity bound to the A2 receptors using 50 μl of CGS 21680 labeled with tritium {^3 H-2-[p-(2-carboxyethyl)phenethylamino]-5'-(N-ethylcarboxamide)adenosine: 40 Ci/mmol, manufactured by New England Nuclear Co. [J. Pharmacol. Exp. Ther., 251, 888 (1989)]} (final concentration: 4.0 nM) in place of 50 μl of the mixture of N-ethylcarboxamidoadenosine labeled with tritium (^3 H-NECA: 26 Ci/mmol, manufactured by Amersham Co.) (final concentration: 3.8 nM) and cyclopentyladenosine (CPA, manufactured by Sigma Co.) (final concentration: 50 nM).
The inhibition rate of the test compound against the binding of A2 receptors (^3 H-CGS 21680 binding) was calculated by the following equation: [formula]

[5] = read-out: A2 Receptor Inhibition Rate
[6] = 10^-4 M, 3H-NECA, read-out: A2 Receptor Inhibition Rate
[7] = 10^-5 M, 3H-NECA, read-out: A2 Receptor Inhibition Rate
[8] = 3H-NECA, read-out: A2 Receptor Inhibition Rate

T1 sequence (P30543 whole entry): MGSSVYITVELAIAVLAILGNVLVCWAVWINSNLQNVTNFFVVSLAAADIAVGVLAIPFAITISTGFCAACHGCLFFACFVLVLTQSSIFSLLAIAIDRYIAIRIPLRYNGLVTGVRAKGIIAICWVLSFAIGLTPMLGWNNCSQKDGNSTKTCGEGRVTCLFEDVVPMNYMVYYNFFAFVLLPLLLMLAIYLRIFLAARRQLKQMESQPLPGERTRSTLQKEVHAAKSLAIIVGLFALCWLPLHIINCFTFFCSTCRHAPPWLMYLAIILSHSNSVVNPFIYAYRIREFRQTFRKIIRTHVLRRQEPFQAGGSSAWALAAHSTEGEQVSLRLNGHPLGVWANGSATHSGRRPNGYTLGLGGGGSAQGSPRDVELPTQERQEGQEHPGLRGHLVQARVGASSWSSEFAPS

| inhibition at 100 µM (adenosine A2 receptor [2]; [6]) [%] | inhibition at 10 µM (adenosine A2 receptor [2]; [7]) [%] | inhibition at 1 µM (adenosine A2 receptor [4]) [%] | inhibition at 0.1 µM (adenosine A2 receptor [4]) [%] | Structure (SMILES) | Total Score (catalepsy) [3] | inhibition in vivo at 10 mg/kg [3] [%] | other results |
| --- | --- | --- | --- | --- | --- | --- | --- |
| 112 | 97 | – | – | CCCn1c(=O)c2c(nc(/C=C/c3cc(OC)c(OC)cc3S(=O)(=O)N(CC)CC)n2C)n(CCC)c1=O [Compound 2, (E)-N,N-Diethyl-4,5-dimethoxy-β-(7-methyl-1,3-dipropylxanthin-8-yl)styrene-2-sulfonamide] | – | – | – |
| 91 | 92 | – | – | CCCN(CCC)S(=O)(=O)c1cc(OC)c(OC)cc1/C=C/c1nc2c(c(=O)n(CCC)c(=O)n2CCC)n1C [Compound 3, (E)-N,N-Dipropyl-4,5-dimethoxy-β-(7-methyl-1,3-dipropylxanthin-8-yl)styrene-2-sulfonamide] | 20 | 20 | – |
| 89 | 69 | – | – | CCCn1c(=O)c2c(nc(/C=C/c3cc(OC)c(OC)c(OC)c3S(=O)(=O)N(C)CCN(C)C)n2C)n(CCC)c1=O [Compound 13, (E)-N-[2-(Dimethylamino)ethyl]-N-methyl-β-(7-methyl-1,3-dipropylxanthin-8-yl)-3,4,5-trimethoxystyrene-2-sulfonamide] | – | – | – |
| – | – | 88 | 69 | CCn1c(=O)c2c(nc(/C=C/c3ccc(C(=O)OC)cc3OC)n2C)n(CC)c1=O [Compound 20, (E)-β-(1,3-Diethyl-7-methylxanthin-8-yl) -2-methoxystyrene-4-carboxylic acid methyl ester] | – | – | – |
| – | – | 94 | 80 | CCCn1c(=O)c2c(nc(/C=C/c3ccc(C(=O)OC)cc3OC)n2C)n(CCC)c1=O [Compound 21, (E)-2-Methoxy-β-(7-methyl-1,3-dipropylxanthin-8-yl)styrene-4-carboxylic acid methyl ester] | – | – | – |
| – | – | 92 | 60 | CCn1c(=O)c2c(nc(/C=C/c3ccc(C(=O)O)cc3OC)n2C)n(CC)c1=O [Compound 22, (E)-β-(1,3-Diethyl-7-methylxanthin-8-yl)-2-methoxystyrene-4-carboxylicacid] | – | – | – |
| – | – | 95 | 70 | CCCn1c(=O)c2c(nc(/C=C/c3ccc(C(=O)O)cc3OC)n2C)n(CCC)c1=O [Compound 23, (E)-2-Methoxy-β-(7-methyl-1,3-dipropylxanthin-8-yl)styrene-4-carboxylic acid] | – | – | – |
| – | – | 93 | 66 | CCCn1c(=O)c2c(nc(/C=C/c3ccc(OC)c(C(C)=O)c3)n2C)n(CCC)c1=O [Compound 26, (E)-8-(3-Acetyl-4-methoxystyryl)-7-methyl-1,3-dipropylxanthine] | – | – | – |
| – | – | 89 | 56 | CCCn1c(=O)c2c(nc(/C=C/c3ccc(S(=O)(=O)O)cc3)n2C)n(CCC)c1=O [Compound 31, (E)-β-(7-Methyl-1,3-dipropylxanthin-8-yl)styrene-4-sulfonic acid] | – | – | – |

The remaining lines, values behind:

| Structure (SMILES) | inhibition at 100 µM (adenosine A2 receptor [2]; [6]) [%] | inhibition at 10 µM (adenosine A2 receptor [2]; [7]) [%] | inhibition at 1 µM (adenosine A2 receptor [4]) [%] | inhibition at 0.1 µM (adenosine A2 receptor [4]) [%] | Total Score (catalepsy) [3] | inhibition in vivo at 10 mg/kg [3] [%] | other results |
| --- | --- | --- | --- | --- | --- | --- | --- |
| CCCn1c(=O)c2c(nc(/C=C/c3cc(OC)c(OC)cc3S(=O)(=O)O)n2C)n(CCC)c1=O [Compound 1, (E)-4,5-Dimethoxy-β-(7-methyl-1,3-dipropylxanthin-8-yl)styrene-2-sulfonic acid] | – | – | – | – | – | – | MLD (minimum lethal dose) [1]: > 300 mg/kg; pKi (adenosine A2 receptor [2]; 3H-NECA): 6.17; inhibition at 10 µM (adenosine A2 receptor [2]; [5]): 80%; inhibition at 100 µM (adenosine A2 receptor [2]; [5]): 95% |
| CCCn1c(=O)c2c(nc(/C=C/c3cc(OC)c(OC)cc3S(=O)(=O)N3CCCCC3)n2C)n(CCC)c1=O [Compound 4, (E)-4,5-Dimethoxy-β-(7-methyl-1,3-dipropylxanthin-8-yl)-2-piperidinosulfonylstyrene] | 60 | 74 | – | – | 11 | 56 | – |
| CCCn1c(=O)c2c(nc(/C=C/c3cc(OC)c(OC)cc3S(=O)(=O)N(C)CCN(C)C)n2C)n(CCC)c1=O [Compound 6, (E)-N-[2-(Dimethylamino)ethyl]-N-methyl-4,5-dimethoxy-β-(7-methyl-1,3-dipropylxanthin-8-yl)styrene-2-sulfonamide] | – | – | – | – | 19 | 24 | – |
| CCCn1c(=O)c2c(nc(/C=C/c3ccc(C(=O)OC)cc3)n2C)n(CCC)c1=O [Compound 7, (E)-β-(7-Methyl-1,3-dipropylxanthin-8-yl)styrene-4-carboxylic acid methyl ester] | 92 | 77 | – | – | 11 | 56 | – |
| CCCn1c(=O)c2c(nc(/C=C\c3ccc(C(=O)OC)cc3)n2C)n(CCC)c1=O [Compound 8, (Z)-β-(7-methyl-1,3-dipropylxanthin-8-yl)styrene-4-carboxylic acid methyl ester] | 101 | 92 | – | – | – | – | MLD (minimum lethal dose) [1]: > 300 mg/kg |
| CCCn1c(=O)c2c(nc(/C=C/c3cc(OC)c(OC)cc3S(=O)(=O)Nc3ccccc3)n2C)n(CCC)c1=O [Compound 10, (E)-N-Phenyl-4,5-dimethoxy-β-(7-methyl-1,3-dipropylxanthin-8-yl)styrene-2-sulfonamide] | – | – | – | – | 17 | 32 | – |
| CCCn1c(=O)c2c(nc(/C=C/c3cc(OC)c(OC)c(OC)c3S(=O)(=O)O)n2C)n(CCC)c1=O [Compound 11, (E)-β-(7-Methyl-1,3-dipropylxanthin-8-yl)-3,4,5-trimethoxystyrene-2-sulfonic acid] | 93 | 93 | – | – | 19 | 24 | – |
| CCCn1c(=O)c2c(nc(/C=C/c3cc(OC)c(OC)c(OC)c3S(N)(=O)=O)n2C)n(CCC)c1=O [Compound 12, (E)-β-(7-Methyl-1,3-dipropylxanthin-8-yl)-3,4,5-trimethoxystyrene-2-sulfonamide] | 76 | 68 | – | – | 15 | 40 | – |
| CCCn1c(=O)c2c(nc(/C=C/c3cc(C)c(C)cc3S(=O)(=O)O)n2C)n(CCC)c1=O [Compound 15, (E) -4,5-Dimethyl-β-(7-methyl-1,3-dipropylxanthin-8-yl)styrene-2-sulfonicacid] | – | – | – | – | – | – | MLD (minimum lethal dose) [1]: > 300 mg/kg |
| CCCn1c(=O)c2c(nc(/C=C\c3ccc(C(=O)O)cc3)n2C)n(CCC)c1=O [Compound 18, (Z)-β-(7-Methyl-1,3-dipropylxanthin-8-yl)styrene-4-carboxylic acid] | – | – | – | – | – | – | MLD (minimum lethal dose) [1]: > 300 mg/kg; inhibition at 1 µM (adenosine A2 receptor [2]; [8]): 72% |
| CCCn1c(=O)c2c(nc(/C=C/c3ccc(C(=O)O)cc3)n2C)n(CCC)c1=O [Compound 19, (E)-β-(7-Methyl-1,3-dipropylxanthin-8-yl)styrene-4-carboxylic acid] | – | – | – | – | – | – | inhibition at 1 µM (adenosine A2 receptor [2]; [8]): 94%; inhibition at 0.1 µM (adenosine A2 receptor [2]; 10^-7 M, 3H-NECA, read-out: A2 Receptor Inhibition Rate): 68% |
| CCn1c(=O)c2c(nc(/C=C/c3ccc(F)c(C(C)=O)c3)n2C)n(CC)c1=O [Compound 28, (E)-8-(3-Acetyl-4-fluorostyryl)-1,3-diethyl-7-methylxanthine] | – | – | 86 | 76 | – | – | – |
| CCn1c(=O)c2c(nc(/C=C/c3ccc(C(C)=O)c(OC)c3)n2C)n(CC)c1=O [Compound 30, (E)-8-(4-Acetyl-3-methoxystyryl)-1,3-diethyl-7-methylxanthine] | – | – | 95 | 83 | – | – | – |
